{"source": "patent US12331032B2", "about": "“Quinone reductase 2 inhibitor compounds and uses thereof” (DUKE UNIVERSITY, priority 2018, dated 2025)", "key": {"[1]": {"biological_target": "T1, quinone reductase 2 (QR2) (Homo sapiens, UniProt P16083)", "T1 sequence (P16083 1-231)": "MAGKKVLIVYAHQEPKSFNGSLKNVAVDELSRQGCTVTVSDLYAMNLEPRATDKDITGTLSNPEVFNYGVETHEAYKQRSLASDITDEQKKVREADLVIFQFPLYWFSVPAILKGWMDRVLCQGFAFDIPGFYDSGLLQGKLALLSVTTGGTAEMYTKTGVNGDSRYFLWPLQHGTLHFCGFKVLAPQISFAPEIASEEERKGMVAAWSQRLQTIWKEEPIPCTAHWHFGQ", "experiment": "QR2 inhibition, comparative IC50 data", "format": "biochemical", "conditions": "QR2 inhibitors"}, "[2]": {"tested_on": "mouse model of closed head injury (TBI)", "experiment": "Rotorod vestibulomotor function after closed head injury (TBI)", "format": "in vivo", "conditions": "mice, i.p. at 4 hours following TBI, after 5 days", "protocol": "The TBI model involves a single impact designed to avoid skull fracture. Injury is produced predominantly through acceleration/deceleration forces. For this model, therapeutic compounds were delivered i.p. at 4 hours following TBI, and then once weekly thereafter for the duration of the experiment, which terminated after 28 days following assessment of spatial learning and memory. […] Mice were tested on Rotorod for 5 consecutive days post TBI, then on day 7 and day 28."}, "[3]": {"tested_on": "mouse model of closed head injury (TBI)", "experiment": "Morris Water maze spatial learning and memory after TBI", "format": "in vivo", "conditions": "days 28-31 post-injury", "protocol": "The TBI model involves a single impact designed to avoid skull fracture. Injury is produced predominantly through acceleration/deceleration forces. For this model, therapeutic compounds were delivered i.p. at 4 hours following TBI, and then once weekly thereafter for the duration of the experiment, which terminated after 28 days following assessment of spatial learning and memory. FIG. 5A-B summarize the results of spatial learning and memory assessments at 4 weeks following TBI, using the Morris Water maze to test the ability of mice to locate a submerged platform. The mice performed four trials/day for 4 consecutive days (inter-trial interval=30 min). The latency to locate the platform was recorded, and the 4 trials per day were averaged. Mice were tested on days 28-31 post-injury (n=11-12 mice per group). Standard control trials to confirm intact vision were also performed."}, "[4]": {"tested_on": "permanent MCA occlusion model", "conditions": "cited from earlier work"}, "[5]": {"conditions": "acidic lysomal pHs between 4 and 5.5; cited from earlier work"}}, "data": [{"smiles": "COc1ccc2c(NCc3cccnc3)ccnc2c1", "note": "[QR2I-44, 7-methoxy-4-(pyridin-3-yl) methylaminoquinoline]", "values": [{"measurement": "IC50", "setting": "[1]", "value": 7.51, "unit": "µM"}, {"measurement": "improvement in Rotorod latency over CQ", "setting": "[2]", "value": "~200", "unit": "%"}, {"measurement": "improvement in Rotorod latency over vehicle", "setting": "[2]", "value": "~300", "unit": "%"}, {"measurement": "improvement in learning and memory over vehicle (Morris Water maze)", "setting": "[3]", "value": "30-35%"}]}, {"smiles": "CCN(CC)CCCC(C)Nc1ccnc2cc(Cl)ccc12", "note": "(stereo not shown) [chloroquine]", "values": [{"measurement": "IC50", "setting": "[1]", "value": 70.9, "unit": "µM"}, {"measurement": "reduction of stroke volumes", "setting": "[4]", "value": 60, "unit": "%"}, {"measurement": "fraction doubly protonated", "setting": "[5]", "value": "~100", "unit": "%"}]}]}
